# Results published in patent US9132164B2, “Pharmaceutical compositions comprising angiotensin-(1-9), derivatives thereof, or a vector expressing ACE2, useful for treating cardiovascular, pulmonary, cerebral, and/or renal remodeling” (PONTIFICIA UNIVERSIDAD CATOLICA DE CHILE, priority 2008, dated 2015).
# “Also recorded” adds a separate entry of the source. No end group written: not given here.
# How the values were obtained:
# [1] = tested on: rats with myocardial infarction (left coronary artery ligation); experiment: Effects of angiotensin-(1-9) administration on hemodynamic parameters and left ventricle weight in infarcted rats; assay type: in vivo, Sprague Dawley rats; conditions: infarcted rats (MI), osmotic mini-pump 14 days, average ± SEM
# Experimental: (§1) For studies with angiotensin-(1-9) 28 rats were randomly distributed into two groups and underwent a sham surgery (n=8) or infarction following left coronary artery ligation (n=20). The infarcted rats were randomized to receive the either the carrier, angiotensin-(1-9) (463 ng/kg of body weight for 14 days) or angiotensin-(1-9) plus A779 (463 ng of angiotensin-(1-9)/kg of body weight/min and 100 ng of A779/kg/min for 14 days) by means of osmotic mini-pumps (ALZET) implanted into the jugular under sedation with ketamine-HCl/xilazine (35/7 mg/kg intraperitoneal, respectively).
# Systolic blood pressure (SBP) was determined by using the “tail-cuff” method by investigators who were blind to the treatment group. Left ventricle function was determined by transthoracic bidimensional echocardiography using a Sonos 5000 equipped with a 5 to 12 MHz sectorial electronic ultraband S12 Philips transducer. The following echocardiographic parameters were determined: left ventricular end-systolic diameter (LVESD), left ventricular end diastolic diameter (LVEDD), left ventricular fractional shortening (LVFS), left ventricular anterior wall thickness (LVAWT), and left ventricular posterior wall thickness (LLVWT).
# (§2) The extent of left ventricular hypertrophy was calculated by the relationship among left ventricular weight (LVW), body weight (BW), mRNA relative levels of the auricular natriuretic factor (ANF), left ventricular protein content (LVP), and protein levels of β-myosinheavy chain (β-MHC) as described in (Ocaranza et al, Hypertension 48:572-8, 2006).
# [2] = tested on: left ventricle of infarcted rats; experiment: ANF mRNA (RT-PCR) and β-MHC protein (Western blot) in left ventricle of infarcted rats; assay type: in vivo, Sprague Dawley rats; conditions: two weeks via osmotic mini-pumps, p<0.01
# Experimental: as §1, §2
# In animal models as described in example 1, the heart was removed and RNA was purified according to the procedure described in example 3. Later, the amount of ANF mRNA was determined by reverse transcription followed by polymerization chain reaction (RT-PCR) (see example 3). […] Panel B) illustrates RT-PCRs quantification. **p<0.01 vs sham; ^##p<0.01 vs MI. […]
# [3] = tested on: Neonatal Sprague-Dawly rat cardiomyocytes; experiment: Hypertrophy of cultured cardiomyocytes induced by norepinephrine or IGF-1; assay type: cell-based; conditions: co-addition of 10 or 100 μM
# Experimental: Neonatal Sprague-Dawly rat cardiomyocytes were isolated as described by (Foncea et al, J. Biol. Chem. 272:19115-24, 1997). Every study is in accordance with the guide for the care and use of laboratory animals Published by “U.S. National Institutes of Health” (NIH publication No 85-23, revised 1985) and was approved by our Institutional Ethics Committee. Cell cultures were >95% pure. Cardiomyocytes were plated at 70% final density in gelatin coated plates and kept at 37° C. in a 5% CO2/95% air moisturized atmosphere for 24 h in DMEM/M199 (4:1) with 10% bovine fetal serum and 5% calf serum. […]
# Cells were grown over slides and were incubated in a buffer conferring stability to the cytoskeleton (10 mM MES pH 6.0, 150 mM NaCl, 5 mM EDTA, 3% sucrose, 5 mM MgCl2) for 5 min. Then, cells were fixed and permeabilized using methanol for 10 min. Non specific binding sites were blocked for 1 h with phosphate-buffered saline (PBS) supplemented with 3% bovine serum albumin. […] Cellular staining was evaluated in a confocal microscope (Carl Zeiss Axiovert 135, LSM Microsystems). Cardiomyocyte size was determined in cells fixed with 4% paraformaldehyde for 10 min and permeabilized with methanol for 10 min. […] The size of at least 100 cells from randomly selected fields was determined using Image J (NIH) software. […]
# [4] = tested on: heart cardiomyocytes of infarcted rats; experiment: Cardiomyocyte area and perimeter, cardiac tissue morphometry of infarcted rats; assay type: in vivo, Sprague Dawley rats; conditions: two weeks via osmotic mini-pumps, p<0.01
# Experimental: as §1
# Heart mid-ventricle transverse slices (10 μm) were embedded in paraffin, stained with hematoxylin and eosin, and were examined by light microcopy (×20). The size of cardiomyocytes was determined as described by Nakamura et al (Circulation 98:794-9, 1998). Briefly, cell images visualized on a video recorded attached to the microscope were projected in a monitor and they were plotted. The area and perimeter were determined using Image J. software. […] At least 70 cells per animal were measured.
# In animal models as described in example 1, heart was removed, histological cuts were made and a morphologic and morphometric analysis was performed on cardiac tissue according to the procedure described in example 3. […] In panel B), quantification is illustrated. **p<0.01 vs sham; ^##p<0.01 vs MI.
# [5] = Plasma angiotensin levels in infarcted rats treated with angiotensin-(1-9) with or without A779; assay type: in vivo, Sprague Dawley rats; conditions: with vs without A779, p<0.01
# Experimental: as §1
# Plasma angiotensin and bradykinin levels were determined as described by (Ocaranza et al, Hypertension 48:572-8, 2006; Ocaranza et al, Life Sci. 78:1535-42, 2005; Campbell et al, J. Mol. Cell. Cardiol. 27:1545-60, 1995). Briefly, rats were anesthetized with a combination of ketamin (125 mg/kg) and xilazin (12.5 mg/kg) administered via intraperitoneal injection. […] Plasmas were stored at −80° C. until their extraction using C18 Sep-Pak cartridges, and peptides were acetylated. Acetylated angiotensin II, angiotensin I, angiotensin-(1-7), angiotensin-(1-9), bradykinin-(1-7) and bradykinin-(1-9) were separated by high performance liquid chromatography (HPLC) and were detected by radioimmunoassay.
sequence,measurement,setting,value
DRVYIHPFH [angiotensin-(1-9)],CPVI,[1],8.0 ± 0.3 mg
same,FC,[1],without observing changes
same,LVW,[1],significant reduction
same,LVW/BW,[1],310 ± 16 MV/100 g BW
same,SBP,[1],without observing changes; also recorded: does not alter
same,FC,[1]; listed as Ang-(1-9),259 ± 14 beats/min
same,LVW,[1]; listed as Ang-(1-9),810 ± 7 mg
same,SBP,[1]; listed as Ang-(1-9),112 ± 2 mm Hg
same,"ANF mRNA levels, reduction compared with infarcted rats",[2]; RT-PCR,81%
same,"β-MHC protein levels in left ventricle, decrease compared with infarcted rats",[2]; Western blot,48%
same,increments in cardiomyocyte areas induced by IGF-1,[3]; IGF-1 10 nM,significantly prevented
same,increments in cardiomyocyte areas induced by NE,[3]; NE 10 μM,significantly prevented
same,cardiomyocyte cellular area increment compared with infarcted rats,[4],prevented cellular area increment
same,"cardiomyocyte perimeter, decrease with regard to infarcted rats",[4],31%
same,plasma angiotensin-(1-9) levels,[5],6.8±0.8 fmols/g
